The record followed here is ChEMBL document CHEMBL3994601, “Polyacetylenic Oleanane-Type Triterpene Saponins from the Roots of Panax japonicus” (J Nat Prod, 2016).

Calls of active or inactive are those of the source. The calls are words filed in the database; no cut-off is given here.

Assay [1] deals with PC-12. Description: Neuroprotective activity against hydrogen peroxide-induced cell damage in rat PC12 cells assessed as increase in cell viability at 3.125 to 50 uM preincubated with compound followed by H2O2 challenge by MTT assay. In kind it is functional, cell-based.
In assay [2] the test system is VSMC. Description: Antiproliferative activity against angiotensin 2-stimulated Wistar rat VSMC after 48 hrs by MTT method. Type of assay: functional, cell-based.

Consider `CCCCOC(=O)[C@H]1O[C@@H](O[C@H]2CC[C@]3(C)[C@H]4CC=C5[C@@H]6CC(C)(C)CC[C@]6(C(=O)O)CC[C@@]5(C)[C@]4(C)CC[C@H]3C2(C)C)[C@H](O[C@@H]2O[C@H](CO)[C@@H](O)[C@H](O)[C@H]2O)[C@@H](O)[C@@H]1O`, for which the result in assay [1] was Active.

As to `C=C[C@@H](O)C#CC#CC[C@@H](O)[C@@H](CCCCCCC)OC(=O)[C@H]1O[C@@H](O[C@H]2CC[C@]3(C)[C@H]4CC=C5[C@@H]6CC(C)(C)CC[C@]6(C(=O)O)CC[C@@]5(C)[C@]4(C)CC[C@H]3C2(C)C)[C@H](O[C@@H]2O[C@H](CO)[C@@H](O)[C@H](O)[C@H]2O)[C@@H](O)[C@@H]1O`, the result in assay [1] was Active.

Take `CCCCOC(=O)[C@H]1O[C@@H](O[C@H]2CC[C@]3(C)[C@H]4CC=C5[C@@H]6CC(C)(C)CC[C@]6(C(=O)O[C@@H]6O[C@H](CO)[C@@H](O)[C@H](O)[C@H]6O)CC[C@@]5(C)[C@]4(C)CC[C@H]3C2(C)C)[C@H](O)[C@@H](O)[C@@H]1O[C@@H]1O[C@@H](CO)[C@H](O)[C@H]1O`: the result in assay [1] was Active.

Consider `COC(=O)[C@H]1O[C@@H](O[C@H]2CC[C@]3(C)[C@H]4CC=C5[C@@H]6CC(C)(C)CC[C@]6(C(=O)O[C@@H]6O[C@H](CO)[C@@H](O)[C@H](O)[C@H]6O)CC[C@@]5(C)[C@]4(C)CC[C@H]3C2(C)C)[C@H](O)[C@@H](O)[C@@H]1O`, for which the “growth inhibition (GI)” value in assay [2] is “Dose-dependent effect”.
